# Columns and labels:
# herpes = conditions: guinea pig, topical, as infrequently as once weekly; cited from earlier work
# [1] = test system: Reconstructed human epithelium (RhE); assay: MTT cell viability in SDS-damaged reconstructed human epithelium; assay type: cell-based; conditions: SDS 0.15% for 1 h, MTT 24 h later
# Protocol: (§1) Reconstructed human epithelium (RhE) was damaged by exposure to SDS 0.15% for 1 h, then 25 μL of the final Sarracenia formulation (Gel B) was applied. Cell viability by the MTT assay (FIG. 1), and cytokine release, specifically, IL-1α, IL-6, IL-8 and G-CSF release measured using ELISA (FIG. 2), were evaluated 24 h later. Each treatment was run in triplicate. A statistically significant (Tukey's multiple comparison test) recovery in cell viability and cytokine release compared to SDS treated inserts was considered as indicator of repair capacity.
# Each value represents the mean±SD, n=3. **p<0.01 vs control. The dotted line is set at the level of cytotoxicity obtained following SDS damage.
# FIG. 1 (legend): Sarracenia extract formulation improve cellular viability in a skin irritant model. The results obtained on cell viability (MTT assay) are reported. Each value represents the mean±SD, n=3. Statistical analysis was performed with Tukey's multiple comparison test with **p<0.01 vs Control. The dotted line is set at the level of cytotoxicity obtained following SDS damage.
# [2] = test system: Reconstructed human epithelium (RhE); assay: Cytokine release (ELISA) in SDS-damaged reconstructed human epithelium; assay type: cell-based; conditions: SDS vs untreated control group
# Protocol: as §1, with “capacity. FIG. 2 (legend): Evaluation of cytokine production. Each value represents the mean±SD, n=3. Statistical analysis was performed with Tukey's multiple comparison test with *p<0.05 vs Control and § vs SDS treated group.” for “capacity.”
# [3] = test system: cancer cells including melanoma; conditions: various types of cancer cells including melanoma; cited from earlier work
# mycobacteria = conditions: from methanolic extracts of Sarracenia purpurea; cited from earlier work
# THP-1 cells = assay: TLR agonist-induced IL-8 and TNF-α release (ELISA) in THP-1 cells; assay type: cell-based, human; conditions: control wells, 24 h
# Protocol: Naïve THP-1 cells were exposed for 24 to the TLR3 agonist poly(I:C) (100 μg/ml), to the TLR7/8 agonist imidazoquinoline (1 μg/m1), to the TLR9 agonist Class A CpG oligonucleotide 5 μM, and to LPS from Escherichia coli serotype 0127:B8 10 ng/ml in the presence or absence of three not cytotoxic concentrations of the extract. IL-8 and TNF-α were measured by ELISA as reference cytokines. Three independent experiments will be conducted. A statistically significant difference versus control cells was considered relevant.
# Naïve THP-1 cells were exposed for 24 to poly(I:C) 100 μg/ml, imidazoquinoline (Imid) 1 μg/ml, or LPS 10 ng/ml in the presence or absence of three concentrations of the extract 0.1, 0.5 and 1.0 mg/ml). IL-8 release was measured by ELISA.
# Naïve THP-1 cells were exposed for 24 to poly(I:C) 100 μg/ml, imidazoquinoline (Imid) 1 μg/ml, or LPS 10 ng/ml in the presence or absence of three concentrations of the extract 0.1, 0.5 and 1.0 mg/ml). TNF-α release was measured by ELISA.
molecule,measurement,setting,value
"CCOCc1nc2c(N)nc3ccccc3c2n1CC(C)(C)O [Resiquimod, 4-amino-2-ethoxymethyl-α,α-dimethyl-1H-imidazo [4,5-c]quinoline-1-ethanol]",recurrences of herpes after therapy,herpes,reduces recurrences of herpes
CCCCCCCCCCCCOS(=O)(=O)[O-].[Na+] [SDS],cell viability after SDS damage,[1],below 50%
same,IL-1α release,[2],increase
same,IL-8 release,[2],increase
C=C(C)[C@@H]1CC[C@]2(CO)CC[C@]3(C)[C@H](CC[C@@H]4[C@@]5(C)CC[C@H](O)C(C)(C)[C@@H]5CC[C@]43C)[C@@H]12 [betulin],anti-tumor activity,[3],anti-tumor activity
C=C(C)[C@@H]1CC[C@]2(C=O)CC[C@]3(C)[C@H](CC[C@@H]4[C@@]5(C)CC[C@H](O)C(C)(C)[C@@H]5CC[C@]43C)[C@@H]12 [betulinaldehyde],antimycobacterial activity,mycobacteria,responsible for the antimycobacterial activity
c1cnc2c(c1)ccc1nc[nH]c12 [imidazoquinoline],IL-8 release by TLR agonist alone,THP-1 cells,induced
C=C(C)[C@@H]1CC[C@]2(C)CC[C@]3(C)[C@H](CC[C@@H]4[C@@]5(C)CC[C@H](O)C(C)(C)[C@@H]5CC[C@]43C)[C@@H]12 [lupeol],anti-tumor activity,[3],anti-tumor activity
C[C@H]1[C@H](C)CC[C@]2(C(=O)O)CC[C@]3(C)C(=CC[C@@H]4[C@@]5(C)CC[C@H](O)C(C)(C)[C@@H]5CC[C@]43C)[C@H]12 [ursolic acid],antimycobacterial activity,mycobacteria,responsible for the antimycobacterial activity
Poly(I:C),IL-8 release by TLR agonist alone,THP-1 cells,induced

# — US20210085743A1, “SARRACENIA-BASED TOPICAL COMPOSITIONS AND METHODS OF USE THEREOF” (Aubio Life Sciences, LLC, priority 2019, published 2021)
